Test results from ChEMBL document CHEMBL5030557, “Tandem Repeat of a Short Human Chemerin-Derived Peptide and Its Nontoxic d-Lysine-Containing Enantiomer Display Broad-Spectrum Antimicrobial and Antitubercular Activities” (J Med Chem, 2021).
In brackets after ≈: the same amount, converted by molar mass. Activity calls are given as the source filed them. The rule behind the calls is not given here.

Columns and labels:
Pseudomonas aeruginosa [1] = test: Antibacterial activity against Pseudomonas aeruginosa infected in Balb/c mouse stomach assessed as animal survival at 100 mg/kg, ip after 7 days; format: functional; conditions: 168 h, time 7 day
[2] = Disruption of membrane integrity in human RBC cells assessed as membrane damage at 150 uM incubated for 15 min by Alexa fluor-annexin V staining based assay (reference value: 0%); format: functional, Red blood cell; conditions: 0.25 h
Escherichia coli [3] = test: Antimicrobial activity against Escherichia coli ATCC 25922 assessed as inhibition of bacterial growth by broth dilution method; format: functional
Bacillus subtilis = test: Antimicrobial activity against Bacillus subtilis ATCC 6633 assessed as inhibition of bacterial growth by broth dilution method; format: functional
Klebsiella pneumoniae = test: Antimicrobial activity against Klebsiella pneumoniae ATCC 27736 assessed as inhibition of bacterial growth by broth dilution method; format: functional
Pseudomonas aeruginosa [4] = test: Antimicrobial activity against Pseudomonas aeruginosa ATCC BAA-427 assessed as inhibition of bacterial growth by broth dilution method; format: functional
[5] = Retention time of the compound analysed by RP-HPLC analysis; format: physicochemical
Staphylococcus aureus [6] = test: Antimicrobial activity against Staphylococcus aureus ATCC 25923 assessed as inhibition of bacterial growth by broth dilution method; format: functional
Staphylococcus aureus [7] = test: Antimicrobial activity against methicilin- resistant Staphylococcus aureus ATCC 33591 assessed as inhibition of bacterial growth by broth dilution method; format: functional
Staphylococcus aureus [8] = test: Antimicrobial activity against multidrug-resistant Staphylococcus aureus ATCC BAA-44 assessed as inhibition of bacterial growth by broth dilution method; format: functional
[9] = Hemolytic activity in human RBC measured after 40 mins; format: ADME, tissue-based, Erythrocyte; conditions: red blood cells (RBC)
Escherichia coli [10] = test: Antibacterial activity against Escherichia coli ATCC 25922 in presence of 10 percent fresh human serum measured after 1 hr; format: functional
Escherichia coli [11] = test: Antibacterial activity against Escherichia coli ATCC 25922 in presence of 4.5 mM KCl measured after 1 hr; format: functional
Escherichia coli [12] = test: Antibacterial activity against Escherichia coli ATCC 25922 in presence of 150 mM NaCl measured after 1 hr; format: functional
Escherichia coli [13] = test: Antibacterial activity against Escherichia coli ATCC 25922 in presence of temperature ranging from 4 to 90 degC measured after 1 hr; format: functional
Cell membrane [14] = test: Induction of membrane damage in Escherichia coli assessed as disruption of membrane integrity at 10 uM incubated for 30 min by propidium iodide staining based assay
[15] = Stability of the compound in human serum assessed as intact compound remaining at 2 mg/ml measured after 60 mins by […] analysis; format: ADME, cell-free; conditions: read-out: Stability
[16] = Acute toxicity in BALB/c mouse assessed as survival at 20 mg/kg administered intravenously measured after 7 days; format: organism-based; conditions: in vivo, iv, 168 h, time 7 day
THP-1 = test: Cytotoxicity against human monocyte THP-1 cell line assessed as cell viability measured for 24 hrs using ELISA plate reader; format: cell-based; conditions: thp-1, 24 h
[17] = Hemolytic activity in human RBC at 150 uM measured after 40 min by hemolysis assay relative to control; format: ADME, tissue-based, Erythrocyte; conditions: red blood cells (RBC), read-out: Activity
Cell membrane [18] = test: Inner membrane permeability of the compound in Escherichia coli ATCC 25922 by ONPG assay; format: ADME, subcellular
Cell membrane [19] = test: Disruption of plasma membrane in Staphylococcus aureus ATCC 25923 at 10 uM by SYTOX-green uptake assay; format: cell membranes; conditions: TDE = time-dependent effect
[20] = Permeability of the compound in PC/PG lipid vesicles by spectrofluorometry; format: ADME
Lipid bilayer = test: Induction of membrane depolarization in mammalian mimetic PC/Chol vesicles assessed as membrane permeabilization
Pseudomonas aeruginosa [21] = test: Antibacterial activity against Pseudomonas aeruginosa BAA 427 assessed as resistance development by measuring fold change in MIC after 30 passages with serially diluted peptides; format: functional
Escherichia coli [22] = test: Bactericidal activity against Escherichia coli ATCC 25922 assessed as bacterial killing at 5 times MIC measured after 60 min; format: functional, organism-based
Pseudomonas aeruginosa [23] = test: Antibacterial activity against Pseudomonas aeruginosa infected in Balb/c mouse stomach assessed as animal survival at 5 mg/kg, ip after 7 days; format: functional; conditions: 168 h, time 7 day
Pseudomonas aeruginosa [24] = test: Antibacterial activity against Pseudomonas aeruginosa infected in Balb/c mouse stomach assessed as animal survival at 10 mg/kg, ip after 7 days; format: functional; conditions: 168 h, time 7 day
Pseudomonas aeruginosa [25] = test: Anti-infective activity in Pseudomonas aeruginosa infected BALB/c mouse spleen assessed as reduction in bacterial growth at 10 mg/kg, ip after 12 hrs; format: functional, organism-based
Pseudomonas aeruginosa [26] = test: Anti-infective activity in Pseudomonas aeruginosa infected BALB/c mouse spleen assessed as reduction in bacterial growth at 10 mg/kg, ip after 18 hrs; format: functional, organism-based
Pseudomonas aeruginosa [27] = test: Anti-infective activity in Pseudomonas aeruginosa infected BALB/c mouse liver assessed as reduction in bacterial growth at 10 mg/kg, ip after 12 hrs; format: functional, organism-based
Pseudomonas aeruginosa [28] = test: Anti-infective activity in Pseudomonas aeruginosa infected BALB/c mouse liver assessed as reduction in bacterial growth at 10 mg/kg, ip after 18 hrs; format: functional, organism-based
Pseudomonas aeruginosa [29] = test: Anti-infective activity in Pseudomonas aeruginosa infected BALB/c mouse kidney assessed as reduction in bacterial growth at 10 mg/kg, ip after 12 hrs; format: functional, organism-based
Pseudomonas aeruginosa [30] = test: Anti-infective activity in Pseudomonas aeruginosa infected BALB/c mouse kidney assessed as reduction in bacterial growth at 10 mg/kg, ip after 18 hrs; format: functional, organism-based
[31] = test system: Mycolicibacterium smegmatis; test: Anti-mycobacterial activity against Mycobacterium smegmatis assessed as growth inhibition at 16.13 uM relative to control; format: functional
[32] = test system: Mycobacterium tuberculosis; test: Anti-mycobacterial activity against Mycobacterium tuberculosis H37Ra assessed as growth inhibition at 16.13 uM relative to control; format: functional
[33] = test system: Mycolicibacterium smegmatis; test: Anti-mycobacterial activity against Mycobacterium smegmatis assessed as reduction in CFU at 3 times MIC after 12 hrs; format: functional, organism-based
[34] = test system: Mycolicibacterium smegmatis; test: Anti-mycobacterial activity against Mycobacterium smegmatis assessed as reduction in CFU at 3 times MIC after 24 hrs; format: functional, organism-based
[35] = test system: Mycolicibacterium smegmatis; test: Anti-mycobacterial activity against Mycobacterium smegmatis infected in human THP-1 cells assessed as reduction in CFU at 24.19 uM after 24 hrs; format: functional
[36] = test system: Mycolicibacterium smegmatis; test: Anti-mycobacterial activity against Mycobacterium smegmatis infected in human THP-1 cells assessed as reduction in CFU at 40.13 uM after 24 hrs; format: functional
[37] = Acute toxicity in BALB/c mouse assessed as change in body weight at 20 mg/kg administered intravenously measured after 7 days; format: organism-based; conditions: in vivo, iv, 168 h, time 7 day

In the case of `C[C@H]1COc2c(N3CCN(C)CC3)c(F)cc3c(=O)c(C(=O)O)cn1c23` [LEVOFLOXACIN], the survival at 100 mg/kg (Pseudomonas aeruginosa [1]) is reported as 100%.

`CC[C@H](C)[C@H](NC(=O)CN)C(=O)NCC(=O)N[C@@H](C)C(=O)N[C@H](C(=O)N[C@@H](CC(C)C)C(=O)N[C@@H](CCCCN)C(=O)N[C@H](C(=O)N[C@@H](CC(C)C)C(=O)N[C@H](C(=O)N[C@H](C(=O)NCC(=O)N[C@@H](CC(C)C)C(=O)N1CCC[C@H]1C(=O)N[C@@H](C)C(=O)N[C@@H](CC(C)C)C(=O)N[C@H](C(=O)N[C@@H](CO)C(=O)N[C@@H](Cc1c[nH]c2ccccc12)C(=O)N[C@H](C(=O)N[C@@H](CCCCN)C(=O)N[C@@H](CCCNC(=N)N)C(=O)N[C@@H](CCCCN)C(=O)N[C@@H](CCCNC(=N)N)C(=O)N[C@@H](CCC(N)=O)C(=O)N[C@@H](CCC(N)=O)C(N)=O)[C@@H](C)CC)[C@@H](C)CC)[C@@H](C)O)[C@@H](C)O)C(C)C)C(C)C` [MELITTIN] showed an Activity [2] of 99.6%.

Molecule `CC(C)C[C@H](NC(=O)[C@H](CCCNC(=N)N)NC(=O)CNC(=O)[C@H](CC(C)C)NC(=O)[C@@H](NC(=O)[C@H](CCCCN)NC(=O)[C@@H](NC(=O)[C@H](CC(C)C)NC(=O)[C@H](CCCNC(=N)N)NC(=O)CNC(=O)[C@H](CC(C)C)NC(=O)[C@@H](NC(=O)[C@H](N)CCCCN)C(C)C)C(C)C)C(C)C)C(=O)N[C@H](C(N)=O)C(C)C` has an MIC (Escherichia coli [3]) of 0.5 µM (≈ 0.775 µg/mL), an MIC (Bacillus subtilis) of 2 µM (≈ 3.1 µg/mL) and an MIC (Klebsiella pneumoniae) of 4 µM (≈ 6.2 µg/mL). It also gave an MIC (Pseudomonas aeruginosa [4]) of 4 µM (≈ 6.2 µg/mL), a Retention_time [5] of 18.8 min and an MIC (Staphylococcus aureus [6]) of 2 µM (≈ 3.1 µg/mL). The MIC (Staphylococcus aureus [7]) was 1 µM (≈ 1.55 µg/mL), the MIC (Staphylococcus aureus [8]) was 2 µM (≈ 3.1 µg/mL) and the HC50 at 40 min [9] was 165 µM. It also gave an MIC (Escherichia coli [10]) of 1 µM, an MIC (Escherichia coli [11]) of 4 µM and an MIC (Escherichia coli [12]) of 2 µM. For the same molecule, the MIC (Escherichia coli [13]) was 2 µM, the Activity (Cell membrane [14]) was “Active” and the Activity [2] was 99.1%.

`CC(C)C[C@H](NC(=O)[C@H](CCCNC(=N)N)NC(=O)CNC(=O)[C@H](CC(C)C)NC(=O)[C@@H](NC(=O)[C@@H](CCCCN)NC(=O)[C@@H](NC(=O)[C@H](CC(C)C)NC(=O)[C@H](CCCNC(=N)N)NC(=O)CNC(=O)[C@H](CC(C)C)NC(=O)[C@@H](NC(=O)[C@@H](N)CCCCN)C(C)C)C(C)C)C(C)C)C(=O)N[C@H](C(N)=O)C(C)C` showed an MIC (Escherichia coli [3]) of 1 µM (≈ 1.55 µg/mL), an MIC (Bacillus subtilis) of 2 µM (≈ 3.1 µg/mL) and an MIC (Klebsiella pneumoniae) of 4 µM (≈ 6.2 µg/mL). The MIC (Pseudomonas aeruginosa [4]) was 4 µM (≈ 6.2 µg/mL), the remaining at 1 h, 2 mg/ml [15] was 88% and the Activity [16] was “Toxic”. The Activity (THP-1) was “Non-Toxic”, the Retention_time [5] was 14.6 min and the hemolysis at 40 min, 150 µM [17] was 0%. It also gave an MIC (Staphylococcus aureus [6]) of 1 µM (≈ 1.55 µg/mL), an MIC (Staphylococcus aureus [7]) of 2 µM (≈ 3.1 µg/mL) and an MIC (Staphylococcus aureus [8]) of 2 µM (≈ 3.1 µg/mL). The HC50 at 40 min [9] was > 2000 µM, the MIC (Escherichia coli [10]) was 2 µM and the MIC (Escherichia coli [11]) was 8 µM. For the same molecule, the MIC (Escherichia coli [12]) was 4 µM, the MIC (Escherichia coli [13]) was 2 µM and the Activity (Cell membrane [14]) was “Active”. For the same molecule, the Activity [2] was 2.1%, the Activity (Cell membrane [18]) was “Active” and the Activity (Cell membrane [19]) was “Tde”. For the same molecule, the Activity [20] was “Active”, the Activity (Lipid bilayer) was “inactive” and the “fold change (FC)” value (Pseudomonas aeruginosa [21]) was 2. For the same molecule, the Activity (Escherichia coli [22]) was “Active”, the survival at 5 mg/kg (Pseudomonas aeruginosa [23]) was 40% and the survival at 10 mg/kg (Pseudomonas aeruginosa [24]) was 80%. The Activity (Pseudomonas aeruginosa [25]) was “Active”, the Activity (Pseudomonas aeruginosa [26]) was “Active” and the Activity (Pseudomonas aeruginosa [27]) was “Active”. For the same molecule, the Activity (Pseudomonas aeruginosa [28]) was “Active”, the Activity (Pseudomonas aeruginosa [29]) was “Active” and the Activity (Pseudomonas aeruginosa [30]) was “Active”. For the same molecule, the inhibition at 16.13 µM [31] was 95%, the inhibition at 16.13 µM [32] was 95% and the Activity [33] was “Active”. The Activity [34] was “Active”, the inhibition at 24.19 µM [35] was 40% and the inhibition at 40.13 µM [36] was 80%. For the same molecule, the Activity [37] was “Non-Toxic”.

GENTAMICIN showed an MIC (Pseudomonas aeruginosa [4]) of 1.35 µM, an MIC (Staphylococcus aureus [6]) of 0.67 µM and an MIC (Staphylococcus aureus [8]) of 1.35 µM. The fold change (FC) (Pseudomonas aeruginosa [21]) was 16.
